Measurements: patent publication US20040116299A1, “Phthalamide derivates, insecticides for agricultural and horticultural use and method for application thereof” (priority 2001, published 2004)

How the values were obtained:
Assay type in all cases: in vivo
[1] = tested on: Diamond Back Moth (Plutella xylostella); assay: Test Example 1: insecticidal effect on diamond back moth, immersion of Chinese cabbage seedling bearing eggs; details: seedling with eggs immersed about 30 seconds, counted six days after immersion, 25° C.; for mortality at 5 ppm / mortality at 50 ppm: Plutella xylostella, 144 h, read-out: Test Example 1 insecticidal effect (mortality criterion)
From the text: Insecticidal Effect on Diamond Back Moth (Plutella xylostella)
Adult diamond back moths were released and allowed to oviposit on a Chinese cabbage seedling. Two days after the release, the seedling having the eggs deposited thereon was immersed for about 30 seconds in a liquid chemical prepared by diluting a preparation containing each compound listed in Table 1 or 2 as an active ingredient to adjust the prescribed concentration. After air-dryness, it was allowed to stand in a room thermostatted at 25° C. Six days after the immersion, the hatched insects were counted. The mortality was calculated according to the following equation and the insecticidal effect was judged according to the criterion shown below. The test was carried out with triplicate groups of 10 insects. [formula]
The compounds described in JP-A-2001-131141 were used as comparative compounds as follows: […]

[2] = tested on: Common Cutworm (Spodoptera litura); assay: Test Example 2: insecticidal effect on common cutworm, cabbage leaf dip, second-instar larvae; details: cabbage leaf immersed about 30 seconds, counted eight days after inoculation, 25° C.; for mortality at 5 ppm / mortality at 50 ppm: Spodoptera litura, foliar, 192 h, read-out: Test Example 2 insecticidal effect (mortality criterion)
From the text: Insecticidal Effect on Common Cutworm (Spodoptera litura)
A piece of cabbage leaf (cultivar; Shikidori) was immersed for about 30 seconds in a liquid chemical prepared by diluting a preparation containing each compound listed in Table 1 or 2 as an active ingredient to adjust the prescribed concentration. After air-dryness, it was placed in a plastic Petri dish with a diameter of 9 cm and inoculated with second-instar larvae of common cutworm, after which the dish was closed and then allowed to stand in a room thermostatted at 25° C. Eight days after the inoculation, the dead and alive were counted. The mortality was calculated according to the following equation and the insecticidal effect was judged according to the criterion shown in Test Example 1. The test was carried out with triplicate groups of 10 insects. [formula]

[3] = tested on: diamondback moth (Plutella xylostella); assay: Test Example 3: controlling effect on diamondback moth by soil treatment for cabbage (planting-hole granules); details: 20 mgAI/plant granules in planting hole; for Number of parasites/3 plants After 18 days: 18 days after trans-planting; for Number of parasites/3 plants After 25 days: 25 days after trans-planting; for Number of parasites/3 plants After 32 days: 32 days after trans-planting; for Number of parasites/3 plants After 42 days: 42 days after trans-planting
Experimental: Controlling effect on diamondback moth (Plutella xylostella) by soil treatment for cabbage At the time of trans-planting cabbage plants (cultivar: YR Seitoku), planting holes were treated with granules prepared from the compound listed in Table 1 or 2 according to Formulation Example. Diamondback moths parasitic on the cabbage plants were counted on predetermined days after the trans-planting. In Table 4, mgAI/plant denotes the dosage (mg) of the active ingredient per plant.

Compound	mortality at 5 ppm ([1]; 5 ppm) [%]	mortality at 50 ppm ([1]; 50 ppm) [%]	mortality at 5 ppm [2] [%]	mortality at 50 ppm ([2]; 50 ppm) [%]	Number of parasites/3 plants After 18 days [3] [parasites/3 plants]	Number of parasites/3 plants After 25 days [3] [parasites/3 plants]	Number of parasites/3 plants After 32 days [3] [parasites/3 plants]	Number of parasites/3 plants After 42 days [3] [parasites/3 plants]	Test Example 1 insecticidal effect (mortality criterion) ([1]; 5 ppm)	Test Example 1 insecticidal effect (mortality criterion) ([1]; 50 ppm)	Test Example 2 insecticidal effect (mortality criterion) ([2]; 50 ppm)
CSCC(C)NC(=O)c1cccc(I)c1C(=O)Nc1ccc(Cl)cc1C (stereo not shown) [A, N^2-(4-chloro-2-methylphenyl)-3-iodo-N^1-(1-methyl-2-methylthioethyl)phthalamide, reference compound]	0 to 49	100	0 to 49	0 to 49	8	75	143	146	–	–	–
CCSCC(C)NC(=O)c1cccc(I)c1C(=O)Nc1ccc(Cl)cc1C (stereo not shown) [B, N^2-(4-chloro-2-methylphenyl) -3-iodo-N^1-(2-ethylthio-1-methylethyl)phthalamide, reference compound]	0 to 49	100	0 to 49	0 to 49	–	–	–	–	–	–	–
Cc1cc(Cl)ccc1NC(=O)c1cccc(I)c1C(=O)NC(C)(C)C[S+](C)[O-] (stereo not shown) [compound 25]	–	–	–	–	0	0	6	22	–	–	–
Cc1cc(Br)ccc1NC(=O)c1cccc(I)c1C(=O)NC(C)(C)C[S+](C)[O-] (stereo not shown) [compound 28]	–	–	–	–	0	7	23	59	–	–	–
CSCC(C)(C)NC(=O)c1c(I)cccc1C(=O)Nc1ccc(I)cc1C [compound 30, N^2-(1,1-dimethyl-2-methylthioethyl)-3-iodo-N^1-(4-iodo-2-methylphenyl)phthalamide]	100	100	0 to 49	100	0	9	19	37	–	–	–
Cc1cc(I)ccc1NC(=O)c1cccc(I)c1C(=O)NC(C)(C)C[S+](C)[O-] (stereo not shown) [compound 31, N^2-(1,1-dimethyl-2-methylsulfinylethyl)-3-iodo-N^1-(4-iodo-2-methylphenyl)phthalamide]	100	100	0 to 49	100	–	–	–	–	–	–	–
Cc1cc(I)ccc1NC(=O)c1cccc(I)c1C(=O)NC(C)(C)CS(C)(=O)=O [compound 32, N^2-(1,1-dimethyl-2-methylsulfonylethyl)-3-iodo-N^1-(4-iodo-2-methylphenyl)phthalamide]	100	100	0 to 49	100	–	–	–	–	–	–	–
CC(C)(CS(C)(=O)=O)NC(=O)c1c(I)cccc1C(=O)Nc1ccc(Cl)cc1Cl [compound 101]	–	–	–	–	–	–	–	–	A (Mortality 100%)	A (Mortality 100%)	–
CSCC(C)(C)NC(=O)c1c(I)cccc1C(=O)Nc1ccc(Cl)c(C(F)(F)F)c1Cl [compound 142]	–	–	–	–	–	–	–	–	–	A (Mortality 100%)	A (Mortality 100%)
